Experimental data reported in ChEMBL document CHEMBL1138287, “Stereoselective synthesis of a novel 2-aza-7-oxabicyclo[3.3.0]octane as neurokinin-1 receptor antagonist” (Bioorg Med Chem Lett, 2007).

Tests used:
[1] = biological target: Voltage-gated L-type calcium channel (Rattus norvegicus, UniProt P22002+Q02485+P27732); experiment: Displacement of [3H]desmethoxyverapamil from verapamil binding site of L type calcium channel in rat heart
Substance-P receptor = Substance-P receptor (Homo sapiens, UniProt P25103); experiment: Displacement of [3H]substance P from NK1 human receptor expressed in IM9 cells; format: cell-based, IM-9
Cavia porcellus [2] = experiment: Antagonist activity in guinea pig ureter assessed as inhibition of capsaicin-induced plasma extravasation at 1 mg/kg, po; format: functional
Cavia porcellus [3] = experiment: Antagonist activity in guinea pig ureter assessed as inhibition of capsaicin-induced plasma extravasation at 10 mg/kg, po; format: functional
Cavia porcellus [4] = species: Cavia porcellus; experiment: Antagonist activity in guinea pig ureter assessed as inhibition of capsaicin-induced plasma extravasation; format: functional

Sequence of Substance-P receptor (P25103 whole entry): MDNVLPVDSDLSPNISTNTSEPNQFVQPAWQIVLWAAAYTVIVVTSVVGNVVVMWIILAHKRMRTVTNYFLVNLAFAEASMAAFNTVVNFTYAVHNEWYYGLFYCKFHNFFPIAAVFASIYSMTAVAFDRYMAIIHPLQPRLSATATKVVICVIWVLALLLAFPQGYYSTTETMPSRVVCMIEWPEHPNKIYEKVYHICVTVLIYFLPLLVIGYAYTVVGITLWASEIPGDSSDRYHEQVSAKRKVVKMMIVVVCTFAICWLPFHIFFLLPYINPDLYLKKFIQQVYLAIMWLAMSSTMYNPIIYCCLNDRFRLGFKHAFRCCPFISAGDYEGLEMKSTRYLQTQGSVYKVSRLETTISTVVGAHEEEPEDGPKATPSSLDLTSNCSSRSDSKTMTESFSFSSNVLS

Row | Structure (SMILES) | IC50 [1] | IC50 (Substance-P receptor) | inhibition in vivo at 1 mg/kg (Cavia porcellus [2]) | inhibition in vivo at 10 mg/kg (Cavia porcellus [3]) | ED50 (Cavia porcellus [4])
1 | COc1ccc(OC(F)(F)F)cc1CN[C@H]1[C@@H]2COC[C@@H]2N[C@H]1c1ccccc1 (racemic) | > 1000 nM | 0.22 nM | 10% | 94% | 1 mg/kg
2 | COc1ccccc1CN[C@H]1[C@@H]2CCC[C@@H]2N[C@H]1c1ccccc1 (racemic) | > 1000 nM | 3.4 nM |  |  | 
